Active and inactive are the calls of the source.
What was measured:
[1] = DRD fibroblast viability loss – cell-based, non-viral oncogenic, luminescence, dose response (AID 1934); format: functional; settings: Homo sapiens
[2] = loss of viability in HepG2 cells – cell-based, CellTiter-Glo, cherry-picked, cytotoxicity control for Shn3 inhibitor project, dose response (AID 624134); format: functional
Vero [3] = test: cells; format: functional; settings: Chlorocebus sabaeus
BJ [4] = test: BJ-TERT fibroblast viability loss – cell-based, RAS-independent, luminescence, dose response (AID 1933); format: functional; settings: Homo sapiens
Beta-galactosidase = Beta-galactosidase (Escherichia coli, UniProt Q8VNN2); test: PubChem AID 485352; format: functional
[5] = reduction of Shn3 3'UTR-driven luciferase in osteoblasts – cell-based, Clone20 osteoblasts, firefly luciferase, cherry-picked, dose response (AID 624132); format: functional;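 note: firefly luciferase luminescence from reporter carrying the Shn3 3'UTR in osteoblasts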
[6] = Luminescence Cell-Based Dose Retest to Confirm Inhibitors of Cancer Stem Cells. [Related pubchem assays (depositor defined):AID2717, AID2721]; format: functional; settings: Homo sapiens
BJ [7] = test: growth inhibition of engineered Ras-driven BJ cells – cell-based, alamar blue fluorescence, cherrypicked samples, dose response (AID 2631); format: functional; settings: Homo sapiens;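 note: confirmatory dose-response assay in RAS-dependent BJ fibroblasts engineered with TERT, LT and ST, with cytotoxicity read by fluorescence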
BJ [8] = test: BJ-TERT-LT-ST fibroblast viability loss – cell-based, RAS-independent, luminescence, dose response (AID 1935); format: functional; settings: Homo sapiens;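 note: BJ fibroblasts immortalized with TERT plus LT and ST oncogenes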
BJ [9] = test: cells; format: functional, cell-based; settings: Homo sapiens
[10] = target: T1, Type-1 angiotensin II receptor (Homo sapiens, UniProt P30556); test: antagonism of angiotensin II type 1 receptor – cell-based, uHTS hits, selectivity assay for APJ receptor antagonist project, dose response (AID 463214); format: functional;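 note: antagonist potency against angiotensin II stimulated AT1 response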
T1 sequence (P30556 whole entry): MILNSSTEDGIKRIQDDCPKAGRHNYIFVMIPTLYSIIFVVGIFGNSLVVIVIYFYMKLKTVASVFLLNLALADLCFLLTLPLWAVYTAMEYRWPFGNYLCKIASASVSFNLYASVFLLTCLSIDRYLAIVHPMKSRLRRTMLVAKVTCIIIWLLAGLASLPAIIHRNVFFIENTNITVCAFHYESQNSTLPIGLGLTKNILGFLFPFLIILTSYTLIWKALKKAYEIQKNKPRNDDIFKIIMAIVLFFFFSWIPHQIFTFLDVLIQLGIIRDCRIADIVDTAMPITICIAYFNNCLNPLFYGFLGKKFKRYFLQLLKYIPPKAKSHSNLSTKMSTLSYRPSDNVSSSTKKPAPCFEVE

Vero [11] = test: cells; format: functional, cell-based; settings: Chlorocebus sabaeus
[12] = non-specific 3'UTR reporter inhibition in Clone20-Shn3RL – cell-based, Renilla luciferase, cherry-picked, counter-screen for Shn3 inhibitor project, dose response (AID 624133); format: functional
[13] = target: T2, Rac GTPase-activating protein 1 (Homo sapiens, UniProt Q9H0H5); test: blockers of MgcRacGAP-driven Rac1 GTP hydrolysis – biochemical, ADP Hunter fluorescence, primary and confirmatory, confirmation (AID 624330); format: functional
T2 sequence (Q9H0H5 whole entry): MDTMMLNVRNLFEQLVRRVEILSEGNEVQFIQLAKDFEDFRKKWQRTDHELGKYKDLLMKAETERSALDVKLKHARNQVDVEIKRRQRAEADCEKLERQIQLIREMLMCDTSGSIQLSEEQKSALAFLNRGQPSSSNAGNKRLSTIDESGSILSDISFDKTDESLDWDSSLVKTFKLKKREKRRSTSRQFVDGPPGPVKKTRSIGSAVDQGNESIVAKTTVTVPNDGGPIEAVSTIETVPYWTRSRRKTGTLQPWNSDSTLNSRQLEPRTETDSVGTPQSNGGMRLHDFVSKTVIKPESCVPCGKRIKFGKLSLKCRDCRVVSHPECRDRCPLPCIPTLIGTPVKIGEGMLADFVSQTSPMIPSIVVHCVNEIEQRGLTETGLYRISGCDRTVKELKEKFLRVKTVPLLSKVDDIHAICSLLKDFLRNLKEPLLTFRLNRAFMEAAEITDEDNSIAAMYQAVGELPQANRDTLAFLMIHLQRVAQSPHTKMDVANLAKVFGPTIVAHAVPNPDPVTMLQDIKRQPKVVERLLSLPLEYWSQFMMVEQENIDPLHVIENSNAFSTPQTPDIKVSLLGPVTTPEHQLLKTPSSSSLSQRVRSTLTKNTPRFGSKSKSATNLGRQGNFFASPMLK

Caspase-3 = target: T3, Caspase-3 (Homo sapiens, UniProt P42574); format: functional;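 note: Dose-response selectivity test against caspase-3 for candidate inhibitors of sentrin-specific proteases (SENPs)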
T3 sequence (P42574 whole entry): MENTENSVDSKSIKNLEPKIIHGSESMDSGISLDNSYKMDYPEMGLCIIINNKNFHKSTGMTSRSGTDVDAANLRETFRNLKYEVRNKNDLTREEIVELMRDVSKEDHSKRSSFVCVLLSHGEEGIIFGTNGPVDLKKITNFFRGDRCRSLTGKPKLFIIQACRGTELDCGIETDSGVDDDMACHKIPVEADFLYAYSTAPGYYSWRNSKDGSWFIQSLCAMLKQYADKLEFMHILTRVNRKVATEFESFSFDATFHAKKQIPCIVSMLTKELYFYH

[14] = target: T4, Sentrin-specific protease 6 (Homo sapiens, UniProt Q9GZR1); format: functional;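 note: Luminescence-based dose-response confirmatory assay of SENP6 inhibition, following up an ultra-high-throughput screen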
T4 sequence (Q9GZR1 whole entry): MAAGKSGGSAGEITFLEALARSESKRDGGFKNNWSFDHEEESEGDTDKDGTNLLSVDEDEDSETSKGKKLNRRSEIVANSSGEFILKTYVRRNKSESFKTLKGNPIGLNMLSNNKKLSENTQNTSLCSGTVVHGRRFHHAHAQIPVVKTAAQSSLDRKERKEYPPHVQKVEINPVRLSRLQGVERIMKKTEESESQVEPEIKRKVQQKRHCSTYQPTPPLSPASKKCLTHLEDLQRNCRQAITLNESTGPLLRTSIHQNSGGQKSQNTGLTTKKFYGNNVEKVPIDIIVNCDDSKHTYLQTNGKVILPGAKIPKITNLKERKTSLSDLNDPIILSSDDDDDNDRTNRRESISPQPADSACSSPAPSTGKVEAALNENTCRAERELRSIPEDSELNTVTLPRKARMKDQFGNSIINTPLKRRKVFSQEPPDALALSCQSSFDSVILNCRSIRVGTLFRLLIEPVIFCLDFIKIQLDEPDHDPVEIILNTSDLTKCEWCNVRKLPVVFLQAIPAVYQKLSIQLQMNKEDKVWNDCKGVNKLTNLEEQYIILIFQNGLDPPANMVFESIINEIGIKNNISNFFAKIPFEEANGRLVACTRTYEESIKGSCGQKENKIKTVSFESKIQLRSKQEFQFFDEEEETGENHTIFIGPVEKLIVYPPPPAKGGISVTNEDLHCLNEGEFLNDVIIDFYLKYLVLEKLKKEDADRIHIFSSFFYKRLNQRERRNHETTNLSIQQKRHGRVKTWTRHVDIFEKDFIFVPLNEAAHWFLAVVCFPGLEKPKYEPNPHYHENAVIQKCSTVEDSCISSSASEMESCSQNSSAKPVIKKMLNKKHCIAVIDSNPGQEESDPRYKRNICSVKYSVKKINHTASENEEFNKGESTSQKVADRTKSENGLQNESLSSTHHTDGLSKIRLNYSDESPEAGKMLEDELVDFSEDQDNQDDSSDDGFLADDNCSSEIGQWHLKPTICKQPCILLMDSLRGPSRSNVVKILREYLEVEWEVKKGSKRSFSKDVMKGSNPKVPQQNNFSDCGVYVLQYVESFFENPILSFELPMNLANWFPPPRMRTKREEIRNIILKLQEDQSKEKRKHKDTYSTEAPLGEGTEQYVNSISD

[15] = target: T5, Sentrin-specific protease 7 (Homo sapiens, UniProt Q9BQF6); format: functional;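 note: Luminescence-based dose-response confirmation of ultra-high-throughput screening hits, measuring inhibition of SENP7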
T5 sequence (Q9BQF6 whole entry): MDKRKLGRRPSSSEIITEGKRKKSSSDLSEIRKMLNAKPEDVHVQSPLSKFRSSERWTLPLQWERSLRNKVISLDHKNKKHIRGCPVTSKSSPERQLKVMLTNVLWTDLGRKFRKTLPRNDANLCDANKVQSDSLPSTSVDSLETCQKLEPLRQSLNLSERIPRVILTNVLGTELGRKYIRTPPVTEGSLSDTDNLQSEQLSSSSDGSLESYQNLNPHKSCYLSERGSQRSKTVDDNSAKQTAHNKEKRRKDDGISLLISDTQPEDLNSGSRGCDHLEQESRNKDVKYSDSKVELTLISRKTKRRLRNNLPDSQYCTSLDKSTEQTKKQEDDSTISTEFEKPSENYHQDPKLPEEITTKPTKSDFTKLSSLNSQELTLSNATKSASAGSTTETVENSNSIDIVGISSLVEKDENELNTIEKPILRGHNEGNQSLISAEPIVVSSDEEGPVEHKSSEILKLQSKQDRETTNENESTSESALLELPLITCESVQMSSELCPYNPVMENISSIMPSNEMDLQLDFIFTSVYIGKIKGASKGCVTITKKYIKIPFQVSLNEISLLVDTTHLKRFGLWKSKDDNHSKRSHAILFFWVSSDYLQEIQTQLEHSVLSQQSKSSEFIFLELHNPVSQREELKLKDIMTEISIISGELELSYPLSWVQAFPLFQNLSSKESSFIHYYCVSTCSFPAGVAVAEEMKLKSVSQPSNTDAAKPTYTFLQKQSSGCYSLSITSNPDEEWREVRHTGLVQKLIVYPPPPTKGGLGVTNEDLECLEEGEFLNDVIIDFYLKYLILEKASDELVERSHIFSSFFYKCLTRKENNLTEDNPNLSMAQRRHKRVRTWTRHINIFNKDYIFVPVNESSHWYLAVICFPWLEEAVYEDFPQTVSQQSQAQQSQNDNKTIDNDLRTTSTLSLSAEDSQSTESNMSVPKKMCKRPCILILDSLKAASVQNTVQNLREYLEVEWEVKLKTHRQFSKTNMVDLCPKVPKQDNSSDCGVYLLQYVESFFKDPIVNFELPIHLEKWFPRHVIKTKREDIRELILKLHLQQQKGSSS

[16] = target: T6, Sentrin-specific protease 8 (Homo sapiens, UniProt Q96LD8); format: functional;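 note: luminescence read-out of SENP8 inhibition, dose-response confirmation following an ultra-high-throughput screen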
T6 sequence (Q96LD8 whole entry): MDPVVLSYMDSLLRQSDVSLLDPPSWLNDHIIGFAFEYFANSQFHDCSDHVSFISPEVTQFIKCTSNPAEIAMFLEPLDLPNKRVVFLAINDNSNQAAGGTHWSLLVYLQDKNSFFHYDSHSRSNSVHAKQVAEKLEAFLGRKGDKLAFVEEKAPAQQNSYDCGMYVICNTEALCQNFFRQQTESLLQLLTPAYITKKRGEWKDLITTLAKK

[17] = target: T7, Probable nicotinate-nucleotide adenylyltransferase (Staphylococcus aureus (strain N315), UniProt P65502); format: functional, Staphylococcus aureus subsp. aureus N315;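 for IC50 Mean: confirmatory dose-response retesting of NadD inhibitor hits first found in an ultra-high-throughput screen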
[18] = target: T7, Probable nicotinate-nucleotide adenylyltransferase; format: functional, Staphylococcus aureus subsp. aureus N315; settings: read-out: IC50_Mean
[19] = target: Dual specificity tyrosine-phosphorylation-regulated kinase 1B (Homo sapiens, UniProt Q9Y463); test: Navigating the Kinome. Panel member name: DYRK1B; format: functional
[20] = target: T8, Tyrosine-protein kinase receptor TYRO3 (Homo sapiens, UniProt Q06418); format: functional;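 note: TYRO3 value obtained as one member of a kinome-wide profiling panel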
T8 sequence (Q06418 whole entry): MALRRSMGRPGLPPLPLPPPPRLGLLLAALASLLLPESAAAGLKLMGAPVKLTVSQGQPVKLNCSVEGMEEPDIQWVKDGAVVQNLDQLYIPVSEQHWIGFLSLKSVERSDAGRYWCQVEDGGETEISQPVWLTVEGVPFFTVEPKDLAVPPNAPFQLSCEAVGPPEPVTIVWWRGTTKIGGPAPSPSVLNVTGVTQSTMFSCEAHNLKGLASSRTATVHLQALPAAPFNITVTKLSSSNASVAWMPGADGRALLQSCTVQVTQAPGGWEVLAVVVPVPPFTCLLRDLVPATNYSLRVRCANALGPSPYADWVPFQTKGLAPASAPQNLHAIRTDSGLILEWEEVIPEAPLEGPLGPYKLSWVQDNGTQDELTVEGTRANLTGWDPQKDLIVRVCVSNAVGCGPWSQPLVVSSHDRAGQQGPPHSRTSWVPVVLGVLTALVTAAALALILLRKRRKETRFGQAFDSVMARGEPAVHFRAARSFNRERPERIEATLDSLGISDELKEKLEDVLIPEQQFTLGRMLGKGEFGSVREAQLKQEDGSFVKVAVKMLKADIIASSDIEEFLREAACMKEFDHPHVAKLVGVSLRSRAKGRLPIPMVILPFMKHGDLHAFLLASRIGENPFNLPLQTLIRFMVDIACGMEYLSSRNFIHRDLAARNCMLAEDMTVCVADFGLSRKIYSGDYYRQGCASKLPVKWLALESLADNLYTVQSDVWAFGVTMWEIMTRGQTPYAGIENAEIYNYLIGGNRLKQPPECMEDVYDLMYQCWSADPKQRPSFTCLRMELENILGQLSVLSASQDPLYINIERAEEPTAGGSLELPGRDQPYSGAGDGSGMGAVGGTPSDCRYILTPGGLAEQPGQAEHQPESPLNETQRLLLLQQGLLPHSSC

T7 sequence (P65502 whole entry): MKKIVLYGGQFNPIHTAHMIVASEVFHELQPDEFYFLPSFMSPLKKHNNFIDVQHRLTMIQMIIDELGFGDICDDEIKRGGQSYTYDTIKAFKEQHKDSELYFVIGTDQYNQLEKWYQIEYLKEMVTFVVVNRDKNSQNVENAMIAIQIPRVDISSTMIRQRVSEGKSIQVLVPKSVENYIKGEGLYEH
Chain of Dual specificity tyrosine-phosphorylation-regulated kinase 1B (Q9Y463 whole entry): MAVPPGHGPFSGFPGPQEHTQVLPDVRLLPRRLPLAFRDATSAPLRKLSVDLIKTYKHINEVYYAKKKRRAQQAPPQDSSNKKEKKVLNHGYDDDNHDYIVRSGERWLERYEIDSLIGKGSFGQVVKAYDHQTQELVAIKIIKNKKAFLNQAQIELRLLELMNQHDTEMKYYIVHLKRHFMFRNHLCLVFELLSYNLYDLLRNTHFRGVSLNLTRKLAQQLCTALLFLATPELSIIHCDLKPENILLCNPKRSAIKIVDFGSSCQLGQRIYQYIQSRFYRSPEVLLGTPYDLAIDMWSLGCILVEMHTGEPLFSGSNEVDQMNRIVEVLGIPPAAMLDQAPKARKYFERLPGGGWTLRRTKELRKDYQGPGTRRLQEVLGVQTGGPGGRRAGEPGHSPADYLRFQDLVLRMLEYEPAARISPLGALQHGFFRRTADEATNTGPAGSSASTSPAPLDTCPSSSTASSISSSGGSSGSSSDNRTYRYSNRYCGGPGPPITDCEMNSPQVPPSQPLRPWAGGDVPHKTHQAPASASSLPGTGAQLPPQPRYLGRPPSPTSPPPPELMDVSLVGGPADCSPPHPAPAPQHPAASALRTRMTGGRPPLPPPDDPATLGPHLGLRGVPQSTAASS
Chain of Beta-galactosidase (Q8VNN2 whole entry): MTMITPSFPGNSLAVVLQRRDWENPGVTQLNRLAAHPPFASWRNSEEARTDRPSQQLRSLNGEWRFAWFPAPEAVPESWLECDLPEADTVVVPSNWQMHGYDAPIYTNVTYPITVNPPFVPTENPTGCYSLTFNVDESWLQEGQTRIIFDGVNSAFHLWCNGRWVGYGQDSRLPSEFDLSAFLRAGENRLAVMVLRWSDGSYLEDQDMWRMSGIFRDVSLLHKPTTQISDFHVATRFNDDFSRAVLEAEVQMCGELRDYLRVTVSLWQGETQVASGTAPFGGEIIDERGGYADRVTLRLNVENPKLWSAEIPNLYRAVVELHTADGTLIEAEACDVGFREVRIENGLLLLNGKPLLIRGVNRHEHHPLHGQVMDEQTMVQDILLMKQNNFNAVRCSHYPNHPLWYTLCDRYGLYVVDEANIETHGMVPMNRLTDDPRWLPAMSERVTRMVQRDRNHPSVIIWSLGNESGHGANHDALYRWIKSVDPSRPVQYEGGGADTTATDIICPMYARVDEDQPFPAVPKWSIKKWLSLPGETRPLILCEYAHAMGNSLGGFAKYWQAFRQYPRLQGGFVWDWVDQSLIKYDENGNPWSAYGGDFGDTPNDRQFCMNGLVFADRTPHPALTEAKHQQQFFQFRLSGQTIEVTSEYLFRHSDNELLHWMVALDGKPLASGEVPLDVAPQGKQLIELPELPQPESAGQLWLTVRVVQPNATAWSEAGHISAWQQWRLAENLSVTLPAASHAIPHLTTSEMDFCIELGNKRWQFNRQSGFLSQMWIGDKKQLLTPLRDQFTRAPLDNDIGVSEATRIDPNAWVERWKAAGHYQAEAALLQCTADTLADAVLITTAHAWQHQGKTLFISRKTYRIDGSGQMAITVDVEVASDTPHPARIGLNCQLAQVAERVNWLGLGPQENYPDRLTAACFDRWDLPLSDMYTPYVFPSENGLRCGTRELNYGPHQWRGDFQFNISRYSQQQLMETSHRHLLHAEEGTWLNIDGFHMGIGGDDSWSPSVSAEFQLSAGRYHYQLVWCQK

SMILES: CCN1C(=O)C(=Cc2cccc(OC)c2Oc2ccc([N+](=O)[O-])cc2[N+](=O)[O-])SC1=S
- EC50 [1]: 4.38 µM (active)
- AC50 [2]: 5.77 µM (active)
- CC50 (Vero [3]): 3.96 µM (active)
- EC50 (BJ [4]): 2.5 µM (inconclusive)
- EC50 (Beta-galactosidase): > 40 µM (inactive)
- AC50 [5]: 1.89 µM (active)
- AC50 [6]: 0.853 µM (active)
- EC50 (BJ [7]): 2.22 µM (active)
- EC50 (BJ [8]): 3.5 µM (active)
- EC50 (BJ [9]): 3.45 µM (inconclusive)
- IC50 [10]: > 40 µM (not active)
- IC50 (Vero [11]): > 6.25 µM (active)
- AC50 [12]: 7.11 µM (active)

SMILES: Cn1cccc1/C=C1\SC(Nc2ccc(O)cc2)=NC1=O
- EC50 [1]: 0.362 µM (active)
- EC50 (BJ [7]): < 0.104 µM (active)
- EC50 (BJ [8]): 0.357 µM (inconclusive)
- EC50 (BJ [9]): 0.926 µM (inconclusive)
- IC50 [13]: 94.8 µM (active)

SMILES: COc1cccc(NC(=O)C(S)=NC2CCCCC2)c1
- IC50 (Caspase-3): 17.9 µM (active)
- IC50 [14]: 20.8 µM (active)
- IC50 [15]: 5.39 µM (active)
- IC50 [16]: 23 µM (active)

SMILES: COC(=O)c1ccc(N=Nc2ccccc2)cc1
- IC50 (Caspase-3): 11.6 µM (active)
- IC50 [14]: 13.2 µM (active)
- IC50 [15]: 5.11 µM (active)
- IC50 [16]: 20.2 µM (active)

SMILES: Cc1ccc(Cl)cc1N1CCN(S(=O)(=O)c2ccc3[nH]c(=O)c(=O)[nH]c3c2)CC1
- IC50 [17]: 7.01 µM (active)
- IC50 [18]: 52.8 µM (active)

SMILES: COc1ccccc1NC(=O)CCSc1ccc(C)cc1
- IC50 (Caspase-3): 18.1 µM (active)
- IC50 [14]: 34.9 µM (active)
- IC50 [15]: 11.2 µM (active)
- IC50 [16]: 37 µM (active)

SMILES: O=c1[nH]c2cnc(Cl)nc2[nH]1
- Ki [19]: 79.4 µM (active)
- Ki [20]: 79.4 µM (active)
